# Assay results reported in paper PMC10518255, “A first-in-class pan-lysyl oxidase inhibitor impairs stromal remodeling and enhances gemcitabine response and survival in pancreatic cancer” (Nature Cancer, 2023).
# “And” between values parts separate entries of the source, which are not always exact repeats. Identical values can stand only once.
# Assays:
# [1] = tested on: KPC mouse model of PDAC; experiment: KPC in vivo survival study; details: KPC mice; PXS-5505 20 mg kg−1 i.p. daily, gemcitabine 100 mg kg−1 i.p. twice weekly
# Text: (§1) The maximal tumor burden allowed by ethics was not exceeded.
# as §1
# [2] = tested on: TKCC10 human PDX tumors; experiment: TKCC10 human model, picrosirius red birefringence after three rounds of therapy (Extended Data Fig. 5d); format: in vivo, mouse; details: for Quantification of red birefringent (mature) collagen fibres: Extended Data 5D, human PDXs at endpoint after 3 cycles of treatment, individual replicates
# Method: Subcutaneous PDX studies were performed by implanting early passage PDX pieces (~4 mm^3) or TKCC10 CCs (1.5 × 10^6 cells per mouse in 100 μl PBS/Matrigel 1:1) into female (PDX) or male (TKCC10) 8-week-old immunocompromised nude Balb/c-Fox1nuAusb mice subcutaneously on the left flank. For the duration of the study, mice were kept in conventional caging with environmental enrichment, access to standard chow, water ad libitum and 12-h light–dark cycle at ambient temperature and humidity. Treatment began when tumors reached 150 mm^3, where each mouse was randomized into a treatment group and administered gemcitabine HCl (100 mg kg^−1 in saline) (Jomar Life Research) or vehicle control (0.9% saline) by i.p. injection twice weekly on day 2 and 4 of the treatment cycle until an ethical end point was reached. These included maximal tumor mass ≥10% of body weight, weight loss ≥20% from maximum body weight or tumor interfering with mobility and affecting access to food and water. Animals with non-tumor-related complications that led to a premature end point were censored. […] Tumor size was monitored every second day by calipers. Tumor volume was calculated using the formula (length × width^2)/2. […]
# Extended Data Fig. 5 PXS-5505 in combination with gemcitabine in vivo. a. […] Signal is defined as the enzyme activity in the aorta, while noise is measured in the presence of a high concentration (300 µM) BAPN to abolish any lysyl oxidase family activity. […] FITC-dextran (molecular weight: 10 kDa) signal quantification from KPC tumor end point from each treatment group (vehicle n = 3 biologically independent animals, PXS-5505 n = 5 biologically independent animals, Gem n = 5 biologically independent animals, PXS-5505 + Gem n = 5 biologically independent animals). […] P-values determined by Welchs t-test. […] Quantification of red birefringent (mature) collagen fibers from human PDXs at end point after 3 cycles of treatment, treated as indicated. […] P values determined by Welchs t-test. g. […] Quantification of green birefringent (nascent) collagen fibers from human PDXs at end point, treated as indicated. […]
# [3] = tested on: TKCC10 human PDX tumors; experiment: TKCC10 human model, bulk modulus by unconfined compression (Extended Data Fig. 5e); format: in vivo, mouse; set-up: key to Bulk modulus (stiffness) by unconfined compression testing: bulk elastic modulus in kPa; details: for Bulk modulus (stiffness) by unconfined compression testing: Extended Data 5E, endpoint human PDX tumours, individual animals
# Method: (§2) Unconfined compression of in vivo tissue samples was carried out on 2–3-mm cross-sectional slices using a TA Instruments Dynamic Hybrid Rheometer (DHR-3, TA Instruments). Tissue samples were placed between upper and lower parallel plate geometries. A constant linear compressive rate of 5 µm s^−1 was applied to the samples and axial force (N) and gap (mm) were collected every 0.01 s. Data were processed and a stress–strain curve for each replicate was obtained. Bulk elastic modulus (kPa) was obtained as the gradient of the linear region of the stress–strain curve corrected for cross-sectional area of sample. Data points represent individual biological replicates.
# (§3) Subcutaneous PDX studies were performed by implanting early passage PDX pieces (~4 mm^3) or TKCC10 CCs (1.5 × 10^6 cells per mouse in 100 μl PBS/Matrigel 1:1) into female (PDX) or male (TKCC10) 8-week-old immunocompromised nude Balb/c-Fox1nuAusb mice subcutaneously on the left flank. For the duration of the study, mice were kept in conventional caging with environmental enrichment, access to standard chow, water ad libitum and 12-h light–dark cycle at ambient temperature and humidity. […] Tumor size was monitored every second day by calipers. Tumor volume was calculated using the formula (length × width^2)/2. […]
# (§4) Extended Data Fig. 5 PXS-5505 in combination with gemcitabine in vivo. a. […] Signal is defined as the enzyme activity in the aorta, while noise is measured in the presence of a high concentration (300 µM) BAPN to abolish any lysyl oxidase family activity. […] FITC-dextran (molecular weight: 10 kDa) signal quantification from KPC tumor end point from each treatment group (vehicle n = 3 biologically independent animals, PXS-5505 n = 5 biologically independent animals, Gem n = 5 biologically independent animals, PXS-5505 + Gem n = 5 biologically independent animals). […] P-values determined by Welchs t-test. […] Quantification of red birefringent (mature) collagen fibers from human PDXs at end point after 3 cycles of treatment, treated as indicated. […] P values determined by Welchs t-test. g. […]
# [4] = tested on: APMA human PDX tumors; experiment: APMA human PDX model, bulk modulus by unconfined compression (Extended Data Fig. 5j); format: in vivo, mouse; set-up: Bulk modulus (stiffness) by unconfined compression testing: unit: kPa (bulk elastic modulus, slope of stress–strain curve); details: for Bulk modulus (stiffness) by unconfined compression testing: Extended Data 5J, endpoint human PDX tumours (second model), individual animals
# Method: as §2, §3, §4
# [5] = TKCC10 model, three rounds of therapy
structure (smiles),measurement,setting,value
"Nc1ccn([C@@H]2O[C@H](CO)[C@@H](O)C2(F)F)c(=O)n1 [Gem, gemcitabine]",Median survival since diagnosis,[1],125 days
same,Quantification of red birefringent (mature) collagen fibres,[2],806 and 284 and 128 and 654 and 1145 and 167 and 291 and 56 and 399 and 263 and 1177 and 403 and 843 and 2660 and 1208 and 745 and 4462 and 5568 and 5319 and 1528 and 2340 and 4185 and 3205 and 2211 and 5904
same,tumor fibrillar collagen content (picrosirius red birefringence),[2]; [5],increases fibrillar collagen I content
same,Bulk modulus (stiffness) by unconfined compression testing,[3],110.51 and 99.1 and 103.39 and 48.75 and 58.11
same,tumor bulk stiffness,[3]; [5],significant increase in tumor bulk stiffness
same,tumor stiffness,"[4]; APMA human PDX, three rounds of treatment",increase in tumor stiffness
same,Bulk modulus (stiffness) by unconfined compression testing,[4],269.794 and 256.26 and 76.734 and 111.802 and 206.587 and 133.731 and 307.593 and 168.407 and 179.416 and 246.898
"Cl.Cl.NC/C=C(\F)CS(=O)(=O)c1cccc2cccnc12.O [PXS-5505, (Z)-3-fluoro-4-(quinolin-8-ylsulfonyl)but-2-en-1-amine dihydrochloride monohydrate]",Median survival since diagnosis,[1],81 days
same,Quantification of red birefringent (mature) collagen fibres,[2],965 and 112 and 188 and 2 and 295 and 380 and 3894 and 62 and 792 and 254 and 25 and 1015 and 164 and 72 and 282 and 10 and 83 (2×) and 9 and 15 and 1307 and 917 and 737 and 1467 and 503
same,Bulk modulus (stiffness) by unconfined compression testing,[3],8.16 and 16.78 and 14.19 and 5.55 and 12.49
same,Bulk modulus (stiffness) by unconfined compression testing,[4],1.617 and 12.779 and 4.886 and 20.468 and 19.194 and 15.624 and 4.142 and 7.216 and 19.443
